Entries after “also recorded” stand apart in the source; their conditions may differ.
Experiments:
male C57/BL6 mice = test: Transverse aortic constriction (TAC) induced left ventricular hypertrophy in mice; type: in vivo
Procedure: Pressure overload was produced by transverse aortic constriction (TAC) to induce left ventricular hypertrophy (FIG. 1). Briefly, male C57/BL6 mice, weighing 20 to 24 grams, were anesthetized by intra-peritoneal injection of a cocktail of ketamine (100 mg/kg) and xylazine ([…]). The mice were shaved, restrained, and orally intubated (under direct vision via a vertical cervical incision) using a 22 guage blunt feeding needle. Respiration was artificially controlled (tidal volume of 0.1 to 0.3 ml) at a respiratory rate of 110 to 150 breaths/minute using a ventilator (Harvard Apparatus Rodent Ventilator, model 683). A median sternotomy was performed and the sternum retracted. The thymus was retracted anteriorly and the aortic arch identified and ligated (using 8.0 nylon suture; Ethicon) between the innominate and left common carotid artery with an overlying 27-guage needle; and then the needle removed to leave a discrete region of stenosis. The chest was then closed in two layers (using 6.0 vicryl suture, Ethicon) and the pneumothorax evacuated. Some mice were subjected to a sham operation in which the aortic arch was visualized but not banded. The mice were then extubated and monitored post-op for 3 to 12 hours. The survival rate at the end of the learning period is greater than 90%.
Nine days post-op, the hearts were removed from heparinized (500 U) mice and euthanized with a lethal dose of pentobarbital (150 mg/kg). The hearts were analyzed by visual inspection of a cross-section of the heart (FIG. 2A), determination of heart to body weight ratio (FIG. 2B), and light microscopy of the cardiomyocytes in the left ventricular (FIG. 2C), and activation of artiel natuiretic factor (ANF), a specific molecular marker for hypertrophy (FIG. 3). Based on these determinations, all trans-aortic constricted mice developed well-defined left ventricular hypertrophy.
To determine whether tyrphostin AG490 could reverse the hypertrophy induced by traverse aortic constriction, tyrphostin AG490 (5 μM) was administered to the mice, intra-peritoneal, 24 hours before being subjected to transverse aortic constriction and every 24 hours thereafter for the duration of the study (9 days).

[1] = test system: St-domain/STAT binding activity; test: Electrophoretic gel mobility-shift assay of St-domain/STAT binding in heart nuclear extracts; parameters: species or system rat; conditions: hearts, 30 min ischemia/120 min reperfusion
From the text: Nuclear extracts were examined in hearts subjected to global ischemia to determine whether there is enhanced STAT binding activity to the St domain of the angiotensinogen promoter. The nuclear heart extracts were examined by the electrophoretic gel mobility-shift assay that exployed the use of the chemically synthesized oligonucleotide sequence of the St domain. The St-domain DNA probe for protein binding was a double-stranded oligonucleotide containing the sequence 5′-GGGTtcCTGGAAGGG-3′ SEQ. ID NO: 2, and complementary strand 5′-CCCTTCCAGgaACCC-3′ SEQ. ID NO: 3, respectively. These probes were end-labeled by polynucleotide kinase and [γ-^32P]ATP. Binding reaction mixture containing 0.5 ng of labeled DNA (1,000 cpm), 2 μg of poly(dI-C), and 1-12 μg of protein in buffer containing 20 mM Hepes, 3% glycerol, 1.5 mM MgCl2, 1 mM DTT, 2 mM EDTA and 50 mM KCl, pH 7.5 was allowed to incubate at 4° C. for 30 min. The reactions were analyzed by electrophoresis on 8% polyacrylanide gel in 0.375× TBE ([…] Tris borate, pH 8.7 and 1.0 mM EDTA). After electrophoresis, the gels were dried and subjected to autoradiography. […] (FIG. 5B). The activation of STATs and the consequent binding to the St-domain in the angiotensinogen promoter accounts for the increase in transcription of angiotensinogen mRNA. […]

rat hearts [2] = test: Myocardial infarct size (triphenyl tetrazolium staining) after ischemia/reperfusion; conditions: FIG. 4B
Procedure: To gain insight into the physiological basis for cardioprotection afforded by tyrphostin AG490, the extent of cardiomyocyte infarct size and apoptosis were measured. On termination of treatment with tyrphostin AG490, hearts were immersed in 1% triphenyl tetrazolium solution in phosphate buffer (Na2HPO4 88 mmol/l, NaH2PO4 1.8 mmol/l) for 10 min. at 37° C. and stored at −70° C. for processing. Frozen hearts (ventricular tissue) were sliced transversely in a plane perpendicular to the apicobasal axis into 0.5 mm thick sections, blotted dry, placed between microscope slides, and scanned on a Hewlett-Packard Scanjet 5 p single-pass flatbed scanner. With the NIH 1.61 image processing software, each digitized image was subjected to equivalent degrees of background subtraction, brightness, and contrast enhancement for improved clarity and distinctness. Risk (equivalent to total left ventricular muscle mass) and infarct zones of each slice were traced, and the respective areas were calculated in terms of pixels. The weight of each slice was then recorded to facilitate the expression of total and infarct masses of each slice in grams. The risk and infarct volumes of each slice in cubic centimeters were then calculated on the basis of slice weight to correct for any errors due to nonuniformity of heart slice thickness. […]

rat hearts [3] = test: Myocardial function of spontaneously beating working hearts subjected to ischemia/reperfusion
[4] = first 60 min of reperfusion, treated groups (5 and 50 μmol/L)

Compound: N#C/C(=C\c1ccc(O)c(O)c1)C(=O)NCc1ccccc1 [tyrphostin AG490]
- reversal of hypertrophy induced by transverse aortic constriction (male C57/BL6 mice; 5 μM intra-peritoneal, 24 h before TAC and every 24 h for 9 days): remarkable reversal of hypertrophy
- LVH by visual inspection of cross section of the heart (male C57/BL6 mice; FIG. 2A, TAC mice): decrease in LVH
- ratio of heart weight to body weight (male C57/BL6 mice; FIG. 2B, TAC mice): decrease in ratio of heart weight to body weight
- hypertrophy of cardiomyocytes of left ventricle by light microscopy (male C57/BL6 mice; FIG. 2C, TAC mice): decrease in hypertrophy
- ANF (atrial natriuretic factor, marker for hypertrophy) (male C57/BL6 mice; FIG. 3, during cardiac hypertrophy): ANF inhibition
- St-domain/STAT binding activity (STAT/DNA complex formation) [1]: total loss of STAT/DNA complex formation; also recorded: reduction of St-domain/STAT binding activity
- myocardial infarct size (rat hearts [2]): reduced myocardial infarct size; also recorded: reduction of infarct size
- cardioprotection (developed pressure and dP/dt) (rat hearts [3]; 5 μmol/L): able to provide cardioprotection to approximately the same degree
- Developed pressure (rat hearts [3]; 5 μmol/L, 60 min of reperfusion (R-60)): 86±2.5 mm Hg
- Developed pressure (rat hearts [3]; 5 μmol/L, 90 min of reperfusion (R-90)): 69±5 mm HG
- Developed pressure (rat hearts [3]; 5 μmol/L, 120 min of reperfusion (R-120)): 60.85±4 mm Hg
- dp/dt (rat hearts [3]; 5 μmol/L, R-30): 3818±49.46
- dp/dt (rat hearts [3]; 5 μmol/L, R-60): 3362±53.14
- dp/dt (rat hearts [3]; 5 μmol/L, R-90): 2840±88
- dp/dt (rat hearts [3]; 5 μmol/L, R-120): 2552±58.9
- baseline value for dP/dt (rat hearts [3]; 50 μmol/L): increased slightly
- cardioprotection (developed pressure and dP/dt) (rat hearts [3]; 50 μmol/L): able to provide cardioprotection to approximately the same degree
- Developed pressure (rat hearts [3]; 50 μmol/L, 60 min of reperfusion (R-60)): 86±4.8 mm Hg
- Developed pressure (rat hearts [3]; 50 μmol/L, 90 min of reperfusion (R-90)): 72.7±5.7 mm HG
- Developed pressure (rat hearts [3]; 50 μmol/L, 120 min of reperfusion (R-120)): 53.75±7 mm Hg
- dp/dt (rat hearts [3]; 50 μmol/L, R-30): 4156±238
- dp/dt (rat hearts [3]; 50 μmol/L, R-60): 3840±140
- dp/dt (rat hearts [3]; 50 μmol/L, R-90): 3194.7±228
- dp/dt (rat hearts [3]; 50 μmol/L, R-120): 2626±269
- dP/dt and developed pressure versus untreated group (rat hearts [3]; all treated groups (5 and 50 μmol/L)): significantly higher
- Developed pressure (rat hearts [3]; [4]): minimally lowered
- dP/dt value (rat hearts [3]; [4]): not lowered
